# Source: patent US5047412A, “Alkene derivatives” (Imperial Chemical Industries PLC, priority 1985, dated 1991)
# Legend:
# [1] = tested on: rabbit aortal strip (TXA2 antagonism); test: rabbit aortal strip model (test (a)); format: cell-based; conditions: procedure (a), agonist U46619
# Method: (a) the rabbit aortal strip model devised by Piper and Vane (Nature, 1969, 223, 29-35) using as agonist a freshly prepared sample of TXA2, generated by addition of arachidonic acid (25 μg) to citrated, platelet rich rabbit plasma (250 μl) and allowing the mixture to aggregate fully over 90 seconds before use; alternatively the TXA2 mimetic agent known as U46619 (described by R. L. Jones et alia, in "Chemistry, Biochemistry and Pharmacological Activity of Prostanoids" edited by S. M. Roberts and F. Scheinmann, at page 211, Pergamon Press, 1979) may be used as the agonist;
# [2] = biological target: T1, blood platelet aggregation (TXA2 antagonism) (Homo sapiens, UniProt P21731); test: blood platelet aggregation test (test (b)); format: cell-based; conditions: procedure (b), human citrated platelet-rich plasma, U46619
# T1 construct: aggregating human, citrated platelet-rich plasma; endogenous in cells; host or cells: human platelets in citrated platelet-rich plasma
# T1 sequence (P21731 1-343): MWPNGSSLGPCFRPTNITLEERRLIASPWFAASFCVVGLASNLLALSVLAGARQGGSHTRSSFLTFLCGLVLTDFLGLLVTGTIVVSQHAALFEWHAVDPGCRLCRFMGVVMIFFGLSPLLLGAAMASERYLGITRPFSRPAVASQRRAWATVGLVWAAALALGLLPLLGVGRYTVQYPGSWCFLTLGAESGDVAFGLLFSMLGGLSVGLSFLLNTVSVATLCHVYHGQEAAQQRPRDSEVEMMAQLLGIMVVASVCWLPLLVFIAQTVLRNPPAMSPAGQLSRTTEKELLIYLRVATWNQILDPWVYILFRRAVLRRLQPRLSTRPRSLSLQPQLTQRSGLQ
# Text: (b) a blood platelet aggregation test based on that described by Born (Nature, 1962, 194, 927-929) and involving:
# (i) aggregating human, citrated platelet-rich plasma by addition of the TXA2 mimetic agent U46619 so that a dose-response curve is generated;
# (ii) generating a dose-response curve for U46619 stimulated platelet aggregation in the presence of increasing amounts of test compound (generally in the range, 10^-5 M to 10^-10 M); and
# (iii) calculating a Kb value indicating potency of TXA2 antagonism for the test compound, averaged over several concentrations, from the calculated 50% response value for U46619 aggregation in the presence and absence of test compound; and […]
smiles,measurement,setting,value
"O=C(O)CC/C=C\C[C@@H]1CO[C@H](/C=C/c2ccccc2)O[C@@H]1c1ccccc1O (relative stereo) [Example 1, 4(Z)-6-([2,4,5-cis]-4-o-hydroxyphenyl-2(E)-styryl-1,3-dioxan-5-yl)hexenoicacid]",pA2,[1],8.9
same,Kb,[2],12 nM
